Values joined by “and” are separate entries in the source; they are usually repeats but may differ in a detail not shown here. Equal values may be shown once.
What follows are molecules tested on TC71 Ewing sarcoma viability, CellTiter-Glo ATP, 72 h (assay: cytotoxicity in EWS/Fli1-dependent TC71 cells – cell-based, luminescence, cherry-picked samples, retest, confirmation (AID 720570)).

| Structure (SMILES) | AC35 |
| --- | --- |
| C[C@@H]1CN([C@H](C)CO)C(=O)Cc2cc(N(C)C)ccc2O[C@H]1CN(C)Cc1ccc(C(=O)Nc2ccccc2N)cc1 | 13.6 µM |
| COc1ccc(S(=O)(=O)N2CC[C@@H]3[C@@H](CO)Nc4ccc(-c5ccc(C#N)cc5)cc4[C@@H]32)cc1 | 2.52 µM |
| Cc1ccc2c(=O)n3c(nc2c1)C(Cc1ccc(O)cc1)NC(=O)c1cc2ccccc2cc1-3 (stereo not drawn) | 9.76 µM |
| O=C1CCCC2=C1C(c1ccccn1)Nc1ccc(C(=O)c3ccccc3)cc1N2 (stereo not drawn) | 17.4 µM |
| CN1C(=O)c2cc(NC(=O)c3ccc(C(F)(F)F)cc3)ccc2OC[C@@H]2O[C@@H](CC(=O)NC3Cc4ccccc4C3)CC[C@H]21 | 4.86 µM |
| C[C@@H]1CN([C@@H](C)CO)C(=O)c2cc(NC(=O)Nc3ccccc3)ccc2O[C@@H]1CN(C)Cc1ccc(C(=O)Nc2ccccc2N)cc1 | 6.58 µM |
| CN(Cc1cnc2nc(N)nc(N)c2n1)c1ccc(C(=O)N[C@@H](CCC(=O)O)C(=O)O)cc1 | 0.0194 µM and 0.0201 µM |
| C[C@H]1CN([C@@H](C)CO)C(=O)Cc2cc(NC(=O)CCCCCC(=O)Nc3ccccc3N)ccc2O[C@H]1CN(C)Cc1ccc(Cl)c(Cl)c1 | 14.1 µM |
| CC(=O)OC1CC2(O)C3CCC4CC(O)CCC4(C)C3CCC2(C)C1C1=CC(=O)OC1 (stereo not drawn) | 0.797 µM |
| C[C@H]1CN([C@@H](C)CO)C(=O)c2cc(NS(=O)(=O)c3ccc(Cl)cc3)ccc2O[C@H]1CN(C)Cc1ccc(C(=O)Nc2ccccc2N)cc1 | 14.7 µM |
| CCCNC(=O)N1[C@H](C#N)[C@H](c2ccc(C#Cc3cccc(F)c3)cc2)[C@H]1CO | 16.1 µM |
| COc1ccc(S(=O)(=O)N2CCCc3nc(-c4ccc(F)cc4)ccc32)cc1 | 7.3 µM |
| Nc1ccc(Cn2ccc3c4c(N)nc(N)nc4ccc32)cc1 | 0.0342 µM |
| CC(C)(C)c1ccc(Oc2ccc(NC(=O)c3ccccc3C(=O)O)cn2)cc1 | 10.3 µM |
| C=C1C(=O)O[C@@H]2[C@H]1[C@@H](OC(=O)/C(C)=C/C)C/C(C)=C\C(=O)/C=C(\C)[C@@H]2O | 9.79 µM |
| COc1cc2c(OC(C)=O)c3c(c(-c4ccc5c(c4)OCO5)c2cc1OC)C(=O)OC3 | 3.57 µM |
| Cc1cc(C)cc(C(=O)NC(=S)Nc2ccc(Cc3ccncc3)cc2)c1 | 7.66 µM |

| Structure (SMILES) | AC35 |
| --- | --- |
| CCN1C/C(=C/c2ccc(OC)c(O)c2)C(=O)/C(=C/c2ccc(OC)c(O)c2)C1 | 22.9 µM |
| Cc1cccc(NC(=O)CN2CCN(C(=O)CNC(=O)c3ccc(-c4ccccc4)cc3)CC2)c1C | 8.9 µM |
| S=c1[nH]nc(-c2cc(-c3ccccc3)n[nH]2)n1/N=C/C(Br)=C/c1ccccc1 | 13.2 µM |
| C[C@@H]1CN([C@@H](C)CO)C(=O)c2cccc(NC(=O)Nc3cccc4ccccc34)c2O[C@@H]1CN(C)Cc1ccc(C(=O)Nc2ccccc2N)cc1 | 10.8 µM |
| Cc1cc(C(=O)Nc2ccc3c(c2)C(=O)N(C)[C@@H]2CC[C@@H](CC(=O)NCc4ccc(-c5ccccc5)cc4)O[C@H]2CO3)no1 | 6.73 µM |
| C[C@H](CO)N1C[C@H](C)[C@H](CN(C)Cc2ccc(C(=O)Nc3ccccc3N)cc2)Oc2ccc(NS(=O)(=O)c3cccs3)cc2C1=O | 8.61 µM |
| COc1ccc(-c2cn(-c3ccc(OC)cc3)c3[n+]2-c2ccccc2CC3)cc1 | 14.4 µM |
| C[C@H]1CN([C@@H](C)CO)C(=O)Cc2cc(NC(=O)C3CC3)ccc2O[C@H]1CN(C)S(=O)(=O)c1ccc(Cl)cc1 | 17.3 µM |
| COc1ccc(C2=NNC(=Nc3cc(S(=O)(=O)N(C)C)ccc3C)SC2)c(OC)c1 | 11.9 µM |
| O=C1NC(=S)NC(=O)C1=Cc1cccn1-c1ccc(O)cc1 | 22.2 µM |
| COc1ccc(OC)c(Cc2cnc3nc(N)nc(N)c3c2C)c1 | 0.0778 µM |
| C[C@H](CO)N1C[C@H](C)[C@H](CN(C)Cc2ccc(C(=O)Nc3ccccc3N)cc2)Oc2ccc(N(C)C)cc2CC1=O | 6.82 µM |
| O=C1NC(=O)N(Cc2ccccc2)C(=O)/C1=C\C=C\c1ccco1 | 10.2 µM |
| CN(C[C@H]1N[C@@H](CO)[C@@H]1c1ccc(C2=CCCC2)cc1)C(=O)c1ccc(F)cc1 | 3.92 µM |
| C[C@H]1CN([C@@H](C)CO)C(=O)Cc2cc(NC(=O)CCC(F)(F)F)ccc2O[C@H]1CN(C)Cc1ccc(C(=O)Nc2ccccc2N)cc1 | 9.19 µM |
| O=C(NCc1ccc(F)cc1)N1[C@H]2CC[C@@H]1C=C(c1ccc(F)cc1OCc1ccccc1)C2 | 13.9 µM |
